22 compounds from ChEMBL document CHEMBL3045957, “Synthesis and antimicrobial activity of some new 3[5-(4-substituted) phenyl-1,3,4-oxadiazole-2yl]-2- styrylquinazoline-4(3H)-ones” (2008) can be followed below.

The structures appear in SMILES notation. ≈ marks a conversion by molar mass, not a printed value. Calls of active or inactive are those of the source.

Holding throughout (assay type): functional
For assay [1], the system named is Fusarium oxysporum. In words: Antifungal activity against Fusarium oxysporum by liquid dilution technique.
In assay [2] the test system is Aspergillus niger. In words: Antifungal activity against Aspergillus niger MTCC 1344 by liquid dilution technique.
Assay [3] deals with Escherichia coli. In words: Antibacterial activity against Escherichia coli MTCC 40 by liquid dilution technique.
Assay [4] relates to Pseudomonas aeruginosa. In words: Antibacterial activity against Pseudomonas aeruginosa MTCC 424 by liquid dilution technique.
In assay [5] the test system is Bacillus subtilis. In words: Antibacterial activity against Bacillus subtilis MTCC 619 by liquid dilution technique.
Assay [6] deals with Staphylococcus aureus. In words: Antibacterial activity against Staphylococcus aureus MTCC 96 by liquid dilution technique.

For `Cc1nc2ccccc2c(=O)n1-c1nnc(-c2ccc(N(C)C)cc2)o1`, the MIC – broadly, the smallest concentration in the dilution series that meets the test's criterion for growth inhibition – in assay [1] turned out to be 179 µg/mL (≈ 515 µM); in assay [2], 170 µg/mL (≈ 489 µM); in assay [3], 84 µg/mL (≈ 242 µM); in assay [4] it was 95 µg/mL (≈ 273 µM); in assay [5] it was 88 µg/mL (≈ 253 µM); in assay [6] it was 88 µg/mL (≈ 253 µM).
As to `Cc1ccc(-c2nnc(-n3c(/C=C/c4ccccc4)nc4ccccc4c3=O)o2)cc1`, the MIC in assay [1] was 156 µg/mL (≈ 384 µM); in assay [2] it was 145 µg/mL (≈ 357 µM); in assay [3] it was 81 µg/mL (≈ 199 µM); in assay [4], 92 µg/mL (≈ 226 µM); in assay [5] it was 83 µg/mL (≈ 204 µM); in assay [6], 85 µg/mL (≈ 209 µM).
On to `CN(C)c1ccc(-c2nnc(-n3c(/C=C/c4ccccc4)nc4ccccc4c3=O)o2)cc1`, for which the MIC was 166 µg/mL (≈ 381 µM) in assay [1]; 155 µg/mL (≈ 356 µM) in assay [2]; 79 µg/mL (≈ 181 µM) in assay [3]; 94 µg/mL (≈ 216 µM) in assay [4]; 83 µg/mL (≈ 191 µM) in assay [5]; 88 µg/mL (≈ 202 µM) in assay [6].
On to `Cc1ccc(-c2nnc(-n3c(C)nc4ccccc4c3=O)o2)cc1`, for which the MIC worked out at 180 µg/mL (≈ 565 µM) in assay [1]; 165 µg/mL (≈ 518 µM) in assay [2]; 115 µg/mL (≈ 361 µM) in assay [3]; 138 µg/mL (≈ 434 µM) in assay [4]; 122 µg/mL (≈ 383 µM) in assay [5]; 127 µg/mL (≈ 399 µM) in assay [6].
For `Cc1nc2ccccc2c(=O)n1-c1nnc(-c2ccc(Cl)cc2)o1`, the MIC in assay [1] was 184 µg/mL (≈ 543 µM); in assay [2], 172 µg/mL (≈ 508 µM); in assay [3], 82 µg/mL (≈ 242 µM); in assay [4], 98 µg/mL (≈ 289 µM); in assay [5] it was 84 µg/mL (≈ 248 µM); in assay [6], 89 µg/mL (≈ 263 µM).
Consider `COc1ccc(-c2nnc(-n3c(/C=C/c4ccc(Cl)cc4)nc4ccccc4c3=O)o2)cc1`, for which the MIC entry in assay [1], in assay [2], in assay [3], in assay [4], in assay [5] and in assay [6] was “inactive” each time.
Take `CCn1cc(C(=O)O)c(=O)c2cc(F)c(N3CCNCC3)cc21` [NORFLOXACIN]: the MIC in assay [3] was found to be 4 µg/mL (≈ 12.5 µM); in assay [4] it was 8 µg/mL (≈ 25.1 µM); in assay [5], 5 µg/mL (≈ 15.7 µM); in assay [6], 6 µg/mL (≈ 18.8 µM).
As to `O=c1c2ccccc2nc(/C=C/c2ccc(Cl)cc2)n1-c1nnc(-c2ccccc2)o1`, the MIC entry in assay [1], in assay [2], in assay [3], in assay [4], in assay [5] and in assay [6] was “inactive” in each case.
For the compound `O=c1c2ccccc2nc(/C=C/c2ccccc2)n1-c1nnc(-c2ccc(Cl)cc2)o1`, the MIC in assay [1] turned out to be 141 µg/mL (≈ 330 µM); in assay [2] it was 130 µg/mL (≈ 305 µM); in assay [3], 70 µg/mL (≈ 164 µM); in assay [4], 86 µg/mL (≈ 201 µM); in assay [5], 75 µg/mL (≈ 176 µM); in assay [6], 79 µg/mL (≈ 185 µM).
`COc1ccc(-c2nnc(-n3c(/C=C/c4ccc(C)cc4)nc4ccccc4c3=O)o2)cc1`: the MIC result in assay [1], in assay [2], in assay [3], in assay [4], in assay [5] and in assay [6] was “inactive” each time.
On to `Cc1ccc(/C=C/c2nc3ccccc3c(=O)n2-c2nnc(-c3ccccc3)o2)cc1`, for which the MIC entry in assay [1], in assay [2], in assay [3], in assay [4], in assay [5] and in assay [6] was “inactive” throughout.
For the compound `O=c1c2ccccc2nc(/C=C/c2ccccc2)n1-c1nnc(-c2ccccc2)o1`, the MIC was found to be 152 µg/mL (≈ 387 µM) in assay [1]; 143 µg/mL (≈ 364 µM) in assay [2]; 76 µg/mL (≈ 194 µM) in assay [3]; 90 µg/mL (≈ 229 µM) in assay [4]; 80 µg/mL (≈ 204 µM) in assay [5]; 82 µg/mL (≈ 209 µM) in assay [6].
Take `Cc1ccc(/C=C/c2nc3ccccc3c(=O)n2-c2nnc(-c3ccc(Cl)cc3)o2)cc1`: the MIC entry in assay [1], in assay [2], in assay [3], in assay [4], in assay [5] and in assay [6] was “inactive” in each case.
Regarding `Cc1ccc(-c2nnc(-n3c(/C=C/c4ccc(Cl)cc4)nc4ccccc4c3=O)o2)cc1`, the MIC entry in assay [1], in assay [2], in assay [3], in assay [4], in assay [5] and in assay [6] was “inactive” throughout.
Take `Cc1nc2ccccc2c(=O)n1-c1nnc(-c2ccccc2)o1`: the MIC in assay [1] stood at 192 µg/mL (≈ 631 µM); in assay [2], 185 µg/mL (≈ 608 µM); in assay [3], 120 µg/mL (≈ 394 µM); in assay [4] it was 135 µg/mL (≈ 444 µM); in assay [5], 127 µg/mL (≈ 417 µM); in assay [6], 130 µg/mL (≈ 427 µM).
As to `CN(C)c1ccc(-c2nnc(-n3c(/C=C/c4ccc(Cl)cc4)nc4ccccc4c3=O)o2)cc1`, the MIC result in assay [1], in assay [2], in assay [3], in assay [4], in assay [5] and in assay [6] was “inactive” throughout.
`COc1ccc(-c2nnc(-n3c(C)nc4ccccc4c3=O)o2)cc1`: the MIC in assay [1] is 175 µg/mL (≈ 523 µM); in assay [2] it was 165 µg/mL (≈ 494 µM); in assay [3], 80 µg/mL (≈ 239 µM); in assay [4], 100 µg/mL (≈ 299 µM); in assay [5], 85 µg/mL (≈ 254 µM); in assay [6], 90 µg/mL (≈ 269 µM).
Consider `Clc1ccccc1C(c1ccccc1)(c1ccccc1)n1ccnc1` [CLOTRIMAZOLE], for which the MIC turned out to be 8 µg/mL (≈ 23.2 µM) in assay [1] and 6 µg/mL (≈ 17.4 µM) in assay [2].
Turning to `O=c1c2ccccc2nc(/C=C/c2ccc(Cl)cc2)n1-c1nnc(-c2ccc(Cl)cc2)o1`, the MIC entry in assay [1], in assay [2], in assay [3], in assay [4], in assay [5] and in assay [6] was “inactive” throughout.
Regarding `COc1ccc(-c2nnc(-n3c(/C=C/c4ccccc4)nc4ccccc4c3=O)o2)cc1`, the MIC entry in assay [1], in assay [2], in assay [3], in assay [4], in assay [5] and in assay [6] was “inactive” each time.
Consider `Cc1ccc(/C=C/c2nc3ccccc3c(=O)n2-c2nnc(-c3ccc(N(C)C)cc3)o2)cc1`, for which the MIC entry in assay [1], in assay [2], in assay [3], in assay [4], in assay [5] and in assay [6] was “inactive” throughout.
On to `Cc1ccc(/C=C/c2nc3ccccc3c(=O)n2-c2nnc(-c3ccc(C)cc3)o2)cc1`, for which the MIC result in assay [1], in assay [2], in assay [3], in assay [4], in assay [5] and in assay [6] was “inactive” throughout.
